Patent US6924278B2, “Aroyl-piperazine derivatives, their preparation and their use as tachykinin antagonists” (Fujisawa Pharmaceutical Co., Ltd., priority 1997, dated 2005)

Assays:
h-NK1 receptors = target: T1, h-NK1 receptors (Homo sapiens, UniProt P25103); assay: Evaluation of NK1 antagonist transport efficiency to the central nervous system using a h-NK1 receptor binding assay (brain extract after i.v. dosing of rats); conditions: 5 min; compound extracted from brain of male SD rats 5 min after i.v. injection at the dose of 1 mg/kg; CHO cell membranes expressing h-NK1; read-out: inhibition rate of 125I-BH-Substance P binding to h-NK1 receptors
T1 construct: expressed in transfected cells; host or cells: CHO cells (permanent expression), crude cell membranes
T1 sequence (P25103 whole entry): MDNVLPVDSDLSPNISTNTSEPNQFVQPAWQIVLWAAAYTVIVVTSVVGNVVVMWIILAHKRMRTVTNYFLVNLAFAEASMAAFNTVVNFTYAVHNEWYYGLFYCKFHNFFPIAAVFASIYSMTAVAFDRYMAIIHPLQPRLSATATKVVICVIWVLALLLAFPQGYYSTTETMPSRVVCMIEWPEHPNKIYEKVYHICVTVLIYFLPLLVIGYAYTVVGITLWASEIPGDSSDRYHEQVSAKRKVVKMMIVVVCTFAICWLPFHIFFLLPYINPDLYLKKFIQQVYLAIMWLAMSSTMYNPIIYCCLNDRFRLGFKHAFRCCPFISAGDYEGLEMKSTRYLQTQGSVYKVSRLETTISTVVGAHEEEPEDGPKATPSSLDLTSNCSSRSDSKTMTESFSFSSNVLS
Description: A. Evaluation of NK1 Antagonist Transport Efficiency to the Cental Nervous System using a h-NK1 Receptor Binding Assay
(1) Administration of Test Compound and Extraction of the Compound from Brain
Male SD rats were given an i.v. injection of a solution containing a test compound (1 mg/kg). 5 Min later the animals were anesthetized by ether, bled and perfused through the aorta ascendens with 20 ml of saline. The brain was rapidly removed, weighed and homogenized in 4 vol. ice-cold distilled water by using Polytoron (KINEMATICA). To extract the test compound, 500 μl of the homogenate, 100 μl of methanol, 500 μl of 0.1 N NaOH and 4 ml of ethyl acetate were mixed by shaking for 10 min at room temperature. The organic phase (2.5 ml) was recovered by centrifugation at 3,000 rpm for 10 min, dried and dissolved in dimethyl sulfoxide.
(2) h-NK1 Receptor Binding Assay
(a) Crude CHO Cell Membrane Preparation
CHO cells permanently expressing h-NK1 receptors were harvested and homogenized with a Dounce homogenizer at 4° C. in a buffer (0.25 M sucrose, 25 mM Tris-HCl (pH 7.4), 10 mM MgCl2, 1 mM EDTA, 5 μg/ml p-APMSF). The homogenate was centrifuged (500×g, 10 min), and the pellet was resuspended in the same buffer, homogenized, and centrifuged. The two supernatants were combined and centrifuged (100,000×g, 1 hour). The crude cell membranes thus isolated were resuspended in a buffer (25 mM Tris-HCl (pH 7.4), 10 mM MgCl2, 1 mM. EDTA, 5 μg/ml p-APMSF) and stored at −80° C. until use.
(b) ^125I-BH-Substance P Binding to the Prepared Membrane
Cell membranes (6 μg/ml) were incubated with ^125I-BH-Substance P (0.1 nM) with or without the extracted compounds in 0.25 ml of a medium (50 mM Tris-HCl (pH 7.4), 5 mM MnCl2, 20 μg/ml chymostatin, 40 μg/ml bacitracin, 4 μg/ml leupeptin, 5 μg/ml p-APMSF, 200 μg/ml BSA) at 22° C. for 90 min. At the end of the incubation period, the contents were quickly filtered through a Blue Mat 11740 filter (pretreated with 0.1% polyethylenimine for 3 hours prior to use) by using SKATRON Cell Harvester. The filter was then washed with a washing buffer (50 mM Tris-HCl (pH 7.4), 5 mM MnCl2). The radioactivity was counted by using an auto gamma counter (Packard RIASTAR 5420A). All data presented are specific binding defined as that displaceable by 3 μM unlabeled Substance P.

Row | Compound | melting point | inhibition at 1 mg/kg (h-NK1 receptors) [%]
1 | CC1(C)COCCN1CCN1CCN(C(=O)c2cc(C(F)(F)F)cc(C(F)(F)F)c2)[C@H](Cc2c[nH]c3ccccc23)C1.Cl.Cl [79-(1), (2R)-1-[3,5-Bis(trifluoromethyl)benzoyl]-4-[2-(3,3-dimethylmorpholino)ethyl]-2-[(1H-indol-3-yl)methyl]piperazine dihydrochloride] | 247 to 258 °C | > 80
2 | Cc1ccc(C[C@@H]2CN(CCN3CCOCC3(C)C)CCN2C(=O)c2cc(C(F)(F)F)cc(C(F)(F)F)c2)cc1C.Cl.Cl [79-(2), (2R)-1-[3,5-Bis(trifluoromethyl)benzoyl]-2-(3,4-dimethylbenzyl)-4-[2-(3,3-dimethylmorpholino)ethyl]piperazine dihydrochloride] | 190 to 210 °C | > 80
3 | Cc1ccc(C[C@@H]2CN(CCN3CCOC[C@@H]3CO)CCN2C(=O)c2cc(C(F)(F)F)cc(C(F)(F)F)c2)cc1C.Cl.Cl [80-(2), (2R)-1-[3,5-Bis(trifluoromethyl)benzoyl]-2-(3,4-dimethylbenzyl)-4-[2-((3S)-3-hydroxymethylmorpholino)ethyl]piperazine dihydrochloride] | 150 to 160 °C | > 80
4 | COC[C@H]1COCCN1CCN1CCN(C(=O)c2cc(C(F)(F)F)cc(C(F)(F)F)c2)[C@H](Cc2ccc(C)c(C)c2)C1.Cl.Cl [80-(4), (2R)-1-[3,5-Bis(trifluoromethyl)benzoyl]-2-(3,4-dimethylbenzyl)-4-[2-((3S)-3-methoxymethylmorpholino)ethyl]piperazine dihydrochloride] | 90 to 100 °C | > 80
5 | COC[C@H]1COCCN1CCCN1CCN(C(=O)c2cc(C(F)(F)F)cc(C(F)(F)F)c2)[C@H](Cc2ccc(C)c(C)c2)C1.Cl.Cl [80-(6), (2R)-1-[3,5-Bis(trifluoromethyl)benzoyl]-2-(3,4-dimethylbenzyl)-4-[3-((3S)-3-methoxymethylmorpholino)propyl]piperazine dihydrochloride] | 55 to 60 °C | > 80
6 | COCC1CN(CCCN2CCN(C(=O)c3cc(C(F)(F)F)cc(C(F)(F)F)c3)[C@H](Cc3ccc(C)c(C)c3)C2)CCO1.Cl (stereo partly drawn) [80-(7), (2R)-1-[3,5-Bis(trifluoromethyl)benzoyl]-2-(3,4-dimethylbenzyl)-4-[3-(2-methoxymethylmorpholino)propyl]piperazine hydrochloride] | 145 to 155 °C | > 80
7 | Cc1ccc(C[C@@H]2CN(CCN3CCOC[C@@H]3CF)CCN2C(=O)c2cc(C(F)(F)F)cc(C(F)(F)F)c2)cc1C.Cl.Cl [81-(1), (2R)-1-[3,5-Bis(trifluoromethyl)benzoyl]-2-(3,4-dimethylbenzyl)-4-[2-((3R)-3-fluoromethylmorpholino)ethyl]piperazine dihydrochloride] | 145 to 155 °C | > 80
8 | COCC1(C)COCCN1CCN1CCN(C(=O)c2cc(C(F)(F)F)cc(C(F)(F)F)c2)[C@H](Cc2ccc(C)c(C)c2)C1.Cl.Cl (stereo partly drawn) [81-(2), (2R)-1-[3,5-Bis(trifluoromethyl)benzoyl]-2-(3,4-dimethylbenzyl)-4-[2-(3-methoxymethyl-3-methylmorpholino)ethyl]piperazine dihydrochloride] | 60 to 70 °C | > 80
9 | CCOC[C@H]1COCCN1CCN1CCN(C(=O)c2cc(C(F)(F)F)cc(C(F)(F)F)c2)[C@H](Cc2ccc(C)c(C)c2)C1.Cl.Cl [81-(3), (2R)-1-[3,5-Bis(trifluoromethyl)benzoyl]-2-(3,4-dimethylbenzyl)-4-[2-((3S)-3-ethoxymethylmorpholino)ethyl]piperazine dihydrochloride] | 60 to 65 °C | > 80
10 | COC[C@@H]1COCCN1CCN1CCN(C(=O)c2cc(C(F)(F)F)cc(C(F)(F)F)c2)[C@H](Cc2ccc(C)c(C)c2)C1.Cl.Cl [81-(4), (2R)-1-[3,5-Bis(trifluoromethyl)benzoyl]-2-(3,4-dimethylbenzyl)-4-[2-((3R)-3-methoxymethylmorpholino)ethyl]piperazine dihydrochloride] | 90 to 100 °C | > 80
11 | COC[C@H]1CN(CCN2CCN(C(=O)c3cc(C(F)(F)F)cc(C(F)(F)F)c3)[C@H](Cc3ccc(C)c(C)c3)C2)CCO1.Cl.Cl [81-(5), (2R)-1-[3,5-Bis(trifluoromethyl)benzoyl]-2-(3,4-dimethylbenzyl)-4-[2-((2R)-2-methoxymethylmorpholino)ethyl]piperazine dihydrochloride] | 160 to 170 °C | > 80
12 | CC1(C)COCCN1CC#CCN1CCN(C(=O)c2cc(C(F)(F)F)cc(C(F)(F)F)c2)C(Cc2cc3ccccc3[nH]2)C1.Cl.Cl (stereo not shown) [89-(1), 1-[3,5-Bis(trifluoromethyl)benzoyl]-2-[(1H-indol-2-yl)methyl]-4-[4-(3,3-dimethylmorpholino)-2-butynyl]piperazine dihydrochloride] | 185 °C | > 80
13 | CN(C)c1cc(C(=O)N2CCN(CC#CCN3CCOCC3(C)C)C[C@H]2Cc2c[nH]c3ccccc23)cc(C(F)(F)F)c1.Cl.Cl [90-(2), (2R)-1-[3-(Dimethylamino)-5-(trifluoromethyl)benzoyl]-4-[4-(3,3-dimethylmorpholino)-2-butynyl]-2-[(1H-indol-3-yl)methyl]piperazine dihydrochloride] | 210 to 225 °C | > 80
14 | CC1(C)COCCN1CC#CCN1CCN(C(=O)c2cc([N+](=O)[O-])cc(C(F)(F)F)c2)[C@H](Cc2c[nH]c3ccccc23)C1.Cl.Cl [90-(3), (2R)-4-[4-(3,3-Dimethylmorpholino)-2-butynyl]-2-[(1H-indol-3-yl)methyl]-1-[3-nitro-5-(trifluoromethyl)benzoyl]piperazine dihydrochloride] | 198 to 220 °C | > 80

Further lines, results first:

Row | melting point | inhibition at 1 mg/kg (h-NK1 receptors) [%] | Compound
15 | 195 to 205 °C | > 80 | CNc1cc(C(=O)N2CCN(CC#CCN3CCOCC3(C)C)C[C@H]2Cc2ccc(C)c(C)c2)cc(C(F)(F)F)c1.Cl.Cl [90-(4), (2R)-2-(3,4-Dimethylbenzyl)-4-[4-(3,3-dimethylmorpholino)-2-butynyl]-1-[3-(methylamino)-5-(trifluoromethyl)benzoyl]piperazine dihydrochloride]
16 | 157 to 200 °C | > 80 | Cc1ccc(C[C@@H]2CN(CC#CCN3CCOCC3(C)C)CCN2C(=O)c2cc([N+](=O)[O-])cc(C(F)(F)F)c2)cc1C.Cl.Cl [90-(6), (2R)-2-(3,4-Dimethylbenzyl)-4-[4-(3,3-dimethylmorpholino)-2-butynyl]-1-[3-nitro-5-(trifluoromethyl)benzoyl]piperazine dihydrochloride]
17 | 165 to 177 °C | > 80 | Cl.Cl.O=C(c1cc(C(F)(F)F)cc(C(F)(F)F)c1)N1CCN(C/C=C\c2cccnc2)C[C@H]1Cc1c[nH]c2ccccc12 [Example 5-(2), (2R)-1-[3,5-Bis(trifluoromethyl)benzoyl]-2-[(1H-indol-3-yl)methyl]-4-[(Z)-3-(3-pyridyl)-2-propenyl]piperazine dihydrochloride]
18 | 175 °C (dec.) | > 80 | Cc1ccc(C[C@@H]2CN(CC#CCN3CCOCC3)CCN2C(=O)c2cc(Cl)cc(Cl)c2)cc1C.Cl.Cl [Example 15, (2R)-1-(3,5-dichlorobenzoyl)-2-(3,4-dimethylbenzyl)-4-(4-morpholino-2-butynyl)piperazine dihydrochloride]
19 | 71 °C (dec.) | > 80 | Cc1ccc(C[C@@H]2CN(CCCNN3CCOCC3)CCN2C(=O)c2cc(Cl)cc(Cl)c2)cc1C.Cl.Cl [Example 17, (2R)-1-(3,5-dichlorobenzoyl)-2-(3,4-dimethylbenzyl)-4-(N-morpholino-3-aminopropyl)piperazine dihydrochloride]
20 | 91 °C (dec.) | > 80 | Cc1ccc(C[C@@H]2CN(CCCc3cn(C)cn3)CCN2C(=O)c2cc(C(F)(F)F)cc(C(F)(F)F)c2)cc1C.Cl.Cl [Example 18, (2R)-1-[3,5-bis(trifluoromethyl)benzoyl]-2-(3,4-dimethylbenzyl)-4-[3-(1-methyl-1H-imidazol-4-yl)propyl]piperazine dihydrochloride]
